From patent publication US20100016400A1, “AZABICYCLIC MUSCARINIC RECEPTOR ANTAGONISTS” (priority 2004, published 2010)

melting point [°C]	SMILES
191 to 194	CNCC1C2CN(C(=O)C(O)(c3ccc(C)cc3)C(F)(F)F)CC12 (stereo not drawn)
179.7 to 182	CNC1C2CN(C(=O)C(O)(c3ccccc3)C(F)(F)F)CC21 (stereo not drawn)
178 to 179.4	CNC1C2CN(C(=O)C(O)(c3ccc(C)cc3)C(F)(F)F)CC21 (stereo not drawn)
140 to 142	CNCC1C2CN(C(=O)C(O)(c3ccccc3)C3CCCCC3)CC12 (stereo not drawn)
110 to 113	CNCC1C2CN(C(=O)C(O)(c3ccccc3)C(F)(F)F)CC12 (stereo not drawn)
71.3 to 72.7	CN(C)C1C2CN(C(=O)C(O)(c3ccccc3)C3CCCCC3)CC21 (stereo not drawn)
